Laboratory results reported in patent publication US8729122B2, “Pharmaceutical and nutraceutical compositions of abscisic acid” (Valent BioSciences Corporation, priority 2010, dated 2014).

Test system: rats
Test: Two Generation Reproduction Toxicity Study (dietary S-ABA)
Format: in vivo
Details: for SPLEEN WEIGHT, % DIFFERENCE: versus 0 PPM
Protocol: Two Generation Reproduction Toxicity Study
This study was conducted to determine the potential adverse effects of the test substance on reproduction in a 2-generation study. This included determining the effects of the test substance on male and female reproductive processes, including gonadal function, estrous cyclicity, mating behavior, conception, gestation, parturition, lactation, weaning, and on growth and development of the offspring. A minimum of 1 litter was produced in each generation.
Three groups of male and female were offered S-ABA, continuously in the diet for at least 70 consecutive days prior to mating. Target tests substance concentrations were 10,000, 15,000, and 20,000 ppm for the F0 and F1 generations. A concurrent control group of 30 rats/sex was offered the basal diet continuously throughout the study. F0 animals were approximately 7 weeks of age at the initiation of test diet administration. The test diet was administered to the offspring selected to become the F1 generation following weaning. The F0 and F1 males continued to receive the test substance throughout mating and continuing through the day prior to euthanasia. The F0 and F1 females continued to receive the test substance throughout mating, gestation, and lactation, and through the day of euthanasia. For both generations (F1 and F2), 8 pups per litter (4 per sex, when possible) were selected to reduce the variability among the litters. Offspring (30/sex/group, if possible) from the pairing of the F0 animals were selected to constitute the F1 generation.
All animals were observed twice daily for appearance and behavior. Clinical observations, body weights, and food consumption were recorded at appropriate intervals for males throughout the study and for females prior to mating and during gestation and lactation. All F0 and F1 females were allowed to deliver and rear their pups until weaning on lactation day 21. Clinical observations, body weights, and sexes for F1 and F2 pups were recorded at appropriate intervals. Nonselected F1 pups and all surviving F2 pups were necropsied. Selected organs were weighed from 1 pup/sex/litter from F1 and F2 pups that were necropsied. Each surviving F0 and F1 parental animal received a complete detailed gross necropsy following the completion of weaning of the F1 and F2 pups, respectively; selected organs were weighed. Spermatogenic endpoints were recorded for all F0 and F1 males, and ovarian primordial follicle counts were recorded for all F0 and F1 females in the control and high-exposure groups and all F0 and F1 females suspected of reduced fertility. Designated tissues from all F0 and F1 parental animals were examined microscopically.

[1] = second generation pups, 10,000 PPM
[2] = second generation pups, 15,000 PPM
[3] = second generation pups, 20,000 PPM

With CC1=CC(=O)CC(C)(C)[C@@]1(O)/C=C/C(C)=C\C(=O)O [S-ABA, (S)-(+)-abscisic acid] as the compound, how does the “OFFSPRING WEIGHT, mean” value (15,000 ppm, male, postnatal day 1) read?
Its value is 6.9 grams.

And the “OFFSPRING WEIGHT, mean” value (15,000 ppm, male, postnatal day 4)?
Its value is 9.3 grams.

What about the “OFFSPRING WEIGHT, mean” value (15,000 ppm, male, postnatal day 7) of the same compound?
The value was 14.7 grams.

What about the “OFFSPRING WEIGHT, mean” value (15,000 ppm, male, postnatal day 14) of the same compound?
The value was 30.8 grams.

And the “OFFSPRING WEIGHT, mean” value (15,000 ppm, male, postnatal day 21)?
Its value is 47.8 grams.

What about the “SPERM PRODUCTION RATE, mean” value (20,000 PPM) of the same compound?
Its value is 10.5 MILLIONS/GRAM/DAY.

What about the “Mean Live Offspring Born (per litter)” value (20,000 ppm) of the same compound?
Its value is 12.3.

And the “Offspring Born” value (20,000 ppm)?
The value was 327.

What about the “Offspring FOUND DEAD” value (20,000 ppm) of the same compound?
The value was 11.

What about the “POSTNATAL SURVIVAL, BIRTH-4 (PRE-SELECT), mean” value (20,000 ppm) of the same compound?
Its value is 96.8 % PER LITTER.

What about the “POSTNATAL SURVIVAL, POSTNATAL DAY 0 (RELATIVE TO # BORN), mean” value (20,000 ppm) of the same compound?
Its value is 98.5 % PER LITTER.

What about the “POSTNATAL SURVIVAL, POSTNATAL DAY 0-1, mean” value (20,000 ppm) of the same compound?
Its value is 99.7 % PER LITTER.

And the “POSTNATAL SURVIVAL, POSTNATAL DAY 1-4 (PRE-SELECTION), mean” value (20,000 ppm)?
The value was 98.5 % PER LITTER.

What about the “POSTNATAL SURVIVAL, POSTNATAL DAY 4 (POST-SELECT)-21, mean” value (20,000 ppm) of the same compound?
The value was 98.0 % PER LITTER.

And the “POSTNATAL SURVIVAL, POSTNATAL DAY 4 (POST-SELECTION)-7, mean” value (20,000 ppm)?
The value was 98.5 % PER LITTER.

And the “POSTNATAL SURVIVAL, POSTNATAL DAY 7-14, mean” value (20,000 ppm)?
The value was 99.5 % PER LITTER.

And the “POSTNATAL SURVIVAL, POSTNATAL DAY 14-21, mean” value (20,000 ppm)?
The value was 100.0 % PER LITTER.

What about the “OFFSPRING WEIGHT, mean” value (20,000 ppm, female, postnatal day 1) of the same compound?
Its value is 6.6 grams.

What about the “OFFSPRING WEIGHT, mean” value (20,000 ppm, female, postnatal day 4) of the same compound?
The value was 8.8 grams.

What about the “OFFSPRING WEIGHT, mean” value (20,000 ppm, female, postnatal day 7) of the same compound?
Its value is 14.5 grams.

And the “OFFSPRING WEIGHT, mean” value (20,000 ppm, female, postnatal day 14)?
Its value is 30.5 grams.

What about the “OFFSPRING WEIGHT, mean” value (20,000 ppm, female, postnatal day 21) of the same compound?
The value was 46.6 grams.

What about the “OFFSPRING WEIGHT, mean” value (20,000 ppm, male, postnatal day 1) of the same compound?
Its value is 7.0 grams.

What about the “OFFSPRING WEIGHT, mean” value (20,000 ppm, male, postnatal day 4) of the same compound?
Its value is 9.3 grams.

And the “OFFSPRING WEIGHT, mean” value (20,000 ppm, male, postnatal day 7)?
Its value is 15.1 grams.

And the “OFFSPRING WEIGHT, mean” value (20,000 ppm, male, postnatal day 14)?
Its value is 31.2 grams.

What about the “OFFSPRING WEIGHT, mean” value (20,000 ppm, male, postnatal day 21) of the same compound?
The value was 48.1 grams.

What about the “OVARIAN PRIMORDIAL FOLLICLE COUNTS, mean” value (females, 10,000 PPM) of the same compound?
Its value is 257.5.

What about the “OVARIAN PRIMORDIAL FOLLICLE COUNTS, mean” value (females, 15,000 PPM) of the same compound?
Its value is 214.0.

What about the “OVARIAN PRIMORDIAL FOLLICLE COUNTS, mean” value (females, 20,000 PPM) of the same compound?
The value was 270.3.

And the “PROSTATE WEIGHT, ORGAN WEIGHT, mean” value (male rats, 10,000 ppm in diet)?
Its value is 1.08 GRAMS.

And the “PROSTATE WEIGHT, ORGAN WEIGHT, mean” value (male rats, 15,000 ppm in diet)?
The value was 1.13 GRAMS.

What about the “PROSTATE WEIGHT, ORGAN WEIGHT, mean” value (male rats, 20,000 ppm in diet) of the same compound?
The value was 1.09 GRAMS.

And the “SPLEEN WEIGHT, mean” value (males, 10,000 PPM)?
The value was 0.98 GRAMS.

What about the “SPLEEN WEIGHT, % DIFFERENCE” value (males, 10,000 PPM) of the same compound?
The value was −2.0%.

What about the “SPLEEN WEIGHT, mean” value (males, 15,000 PPM) of the same compound?
The value was 0.97 GRAMS.

What about the “SPLEEN WEIGHT, % DIFFERENCE” value (males, 15,000 PPM) of the same compound?
The value was −3.0%.

And the “SPLEEN WEIGHT, mean” value (males, 20,000 PPM)?
The value was 0.92 GRAMS.

And the “SPLEEN WEIGHT, % DIFFERENCE” value (males, 20,000 PPM)?
The value was −8.9%.

What about the “impact of prostate weight reduction on sperm production” value (rats, two-generation study) of the same compound?
The value was “no impact on sperm production”.

What about the “SPLEEN WEIGHT, mean” value [1] of the same compound?
Its value is 0.1989 GRAMS.

What about the “SPLEEN WEIGHT, % DIFFERENCE” value [1] of the same compound?
The value was −14.8%.

What about the “SPLEEN WEIGHT, mean” value [2] of the same compound?
Its value is 0.1918 GRAMS.

What about the “SPLEEN WEIGHT, % DIFFERENCE” value [2] of the same compound?
The value was −17.8%.

And the “SPLEEN WEIGHT, mean” value [3]?
The value was 0.1979 GRAMS.

And the “SPLEEN WEIGHT, % DIFFERENCE” value [3]?
Its value is −15.2%.
